Consider 69 compounds from PubChem BioAssay AID179 (DTP/NCI, 2004).

Calls of active or inactive are those of the source.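 Rule for the calls: active = compounds giving half or more protection of infected cells from virus-caused growth loss, again on retest; inactive = the rest.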

The subject of this assay is CEM cells HIV-1 protection, formazan growth assay. As to the kind of experiment: NCI AIDS Antiviral Assay. As to conditions: for IC50: measured here: growth of uninfected CEM cells. In a few lines:
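Category rules: moderately active means at least 50% protection on retest, and confirmed active means 100% protection reproducibly. The underlying data came from a formazan growth assay in HIV-1-infected CEM cells.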

One may read the EC50 as the concentration needed to bring the measured effect to its halfway point. Broadly, the IC50 is the concentration needed to halve the response being measured. In the case of `CN1C(=O)Nc2ncn(C)c2S1(=O)=O`, the EC50 is above 603 µM and the half-maximal inhibitory concentration (IC50) is above 603 µM. On to `Cc1cc(NS(=O)(=O)c2ccc(NC(=O)c3cccc4c(Nc5ccc(S(=O)(=O)N=C(N)N)cc5)c5ccccc5nc34)cc2)no1`, for which the EC50 is 52.5 µM and the IC50 was 53.7 µM. Take `CCOC(=O)/C(=C/c1ccccc1Br)P(=O)(OCC)OCC`: the EC50 was above 91.2 µM and the IC50 came out at 5.75 µM. The like results for `NCC[PH+](c1ccccc1)c1ccccc1.NCC[PH+](c1ccccc1)c1ccccc1.[Cl-].[Pt+4]` were, in that order, above 200 µM and 72.4 µM. In the same order, the values of `CC(=O)OCC1OC(N2C(=O)[C@@H](Oc3ccccc3)[C@H]2/C=C/c2ccccc2)C(OC(C)=O)C(OC(C)=O)C1OC(C)=O` (some centres undefined) are above 16.6 µM and above 16.6 µM.

On to `Cc1cc(N(CCC#N)CCC#N)ccc1/C=C(\NC(=O)/C=C/c1ccccc1)C(=O)Nc1ccccc1Cl`, for which the result was inactive. For `CCCCNc1nc(C#N)c(N)s1`, the EC50 was above 1260 µM and the IC50 came to 204 µM. In the same order, the values of `Cc1nc2sc(C)c(C)c2c(=O)o1` are above 200 µM and 95.5 µM.

In the case of `Cc1cccc(C)c1NC(=O)C(=O)Cc1nc2ccccc2s1`, the result was inactive.

As for `C=CCN(N=O)C(=O)NCCCCC(NC(C)=O)C(=O)NCc1ccccc1` (centres undefined), the result was inactive.

For `CN(C(=O)C1(C(=O)C=[N+]=[N-])CC1)c1ccccc1`, the EC50 is above 1020 µM and the IC50 was above 1020 µM. In the case of `CCOC(=O)C[C@H]1C(=O)C[C@@H]2C[C@@H](C)CC(=O)[C@@]21CCC#N`, the result was inactive. As for `c1ccc2[nH]c(SSSSc3nc4ccccc4[nH]3)nc2c1`, the EC50 was above 200 µM and the IC50 was above 200 µM. As to `NC(CSS(=O)(=O)O)=NCCCOCc1ccccc1`, the EC50 was above 200 µM and the IC50 stood at 112 µM. With `COc1cccc(/C=N/[N-]C(N)=O)c1[O-].[Ni+2].[OH3+].c1cnc2c(c1)ccc1cccnc12`, the result was inactive. For the compound `Cc1ccc(O)c(C(c2ccc([N+](=O)[O-])cc2)c2cc(C)ccc2O)c1`, the outcome was inactive.

`O=C(CCCC[n+]1ccccc1)Sc1ccccc1C(=O)Nc1ccc(S(=O)(=O)c2ccc([N+](=O)[O-])cc2)cc1`: the EC50 is 7.59 µM and the IC50 worked out at 138 µM.

`CCCc1c(C(=O)OCC)[nH]c(-c2ccc(-c3[nH]c(C(=O)OCC)c(CCC)c3C(=O)OCC)o2)c1C(=O)OCC`: the EC50 is above 4.79 µM and the IC50 was above 4.79 µM. With `O=C(CC1C(=O)Nc2ccccc2S1=O)Nc1ccccc1` (centres undefined), the EC50 was above 22.9 µM and the IC50 was above 22.9 µM. As for `CN=C(SC)N(C)c1nc(=[N+](C)C)ss1`, the outcome was inactive.

Turning to `CC(C)N(c1cc2c(cc1F)c(=O)c(C(=O)O)cn2-c1ccc(N2CCN(C)CC2)cn1)C(C)C`, the EC50 is above 200 µM and the IC50 is above 200 µM. In the case of `COC1O[C@H]2[C@H]3[C@@H]1[C@@H](OS(=O)(=O)c1ccc(C)cc1)C(=O)N3C[C@H]2O` (some centres undefined), the EC50 is 18.2 µM and the IC50 amounted to 141 µM. In the same order, the values of `CCOC(=O)C1OC12CCC(C(C)(C)C)CC2` (centres undefined) are above 200 µM and 191 µM.

In the case of `Cc1cn(C2CC(n3ncnn3)C(CO)O2)c(=O)[nH]c1=O` (centres undefined), the result was inactive. For the compound `O=C(OCCNC(=O)N1CC1)OCCNC(=O)N1CC1`, the EC50 was above 200 µM and the IC50 is above 200 µM.

For the compound `COC(=O)c1ccc(CSc2ccc(N)cc2)cc1`, the outcome was inactive. With `O=c1[nH]cnc2cc3c(cc12)nc1n3CCOC1`, the EC50 is above 52.5 µM and the IC50 is above 52.5 µM. Turning to `CC(=O)C1CCC2C3CC4OCC5(CCC(O)CC45Br)C3CCC12C` (centres undefined), the EC50 was above 200 µM and the IC50 came out at 40.7 µM. For `COc1ccc(/C=C/C(=O)C(C)(C)CN2CCCCC2)cc1`, the EC50 is above 933 µM and the IC50 was found to be 10.5 µM. Take `Clc1ccc(Cl)c(-c2nc3ccccc3[nH]2)c1`: the EC50 is above 97.7 µM and the IC50 is above 97.7 µM. Regarding `CCCCCCCCCC(O)CC(=O)c1c(O)cccc1O` (centres undefined), the EC50 is above 200 µM and the IC50 is 32.4 µM. The like results for `Cc1c(CN2CCCC2)c(O)c2c(=O)c3c(O)c(CN4CCCC4)c(O)c4c5c(O)c(CN6CCCC6)c(O)c6c(=O)c7c(O)c(CN8CCCC8)c(C)c8c1c2c(c34)c(c78)c65` were, in that order, above 17.8 µM and above 17.8 µM. In the case of `Nc1ccn(C2OC(COC(=O)c3ccccc3)C(OC(=O)c3ccccc3)C2I)c(=O)n1` (centres undefined), the EC50 was above 200 µM and the IC50 was determined as 35.5 µM. The like results for `CCN(CC)CCOc1ccccc1/C=C/c1noc2ccccc12` were, in that order, above 200 µM and 29.5 µM.

Turning to `CN1/C(=C\N=O)C(C)(C)N(O)C1(C)C`, the EC50 is above 200 µM and the half-maximal inhibitory concentration (IC50) is above 200 µM. As to `O=[N+]([O-])c1ccc(Cc2ccc([N+](=O)[O-])cc2)cc1`, the EC50 was above 28.2 µM and the IC50 was above 28.2 µM.

Consider `Cc1cc(-c2ccco2)c(C#N)c(=S)n1C1OC(CO)C(O)C(O)C1O` (centres undefined), for which the EC50 was above 200 µM and the half-maximal inhibitory concentration (IC50) is above 200 µM. Regarding `O=C(CSc1nc(-c2ccccc2)c(-c2ccccc2)[nH]1)N/N=C/c1ccc([N+](=O)[O-])cc1`, the EC50 is above 21.9 µM and the IC50 came out at 10 µM.

Regarding `Clc1ccc(C2C3COc4ccccc4C3=NN2c2ccccc2)cc1` (centres undefined), the EC50 was above 151 µM and the IC50 was 1.95 µM. The like results for `N#Cc1n[nH]n(-c2ccc(Br)cc2)c1=O` were, in that order, above 200 µM and above 200 µM. Turning to `CN(C)CCCNC(=O)c1cc(NC(=O)c2cc(NC(=O)c3cc(NC(=O)c4cccc(C(=O)Nc5cc(C(=O)Nc6cc(C(=O)Nc7cc(C(=O)NCCCN(C)C)n(C)c7)n(C)c6)n(C)c5)n4)cn3C)cn2C)cn1C`, the EC50 is above 100 µM and the IC50 is above 100 µM. In the case of `COCCN1C(=O)C(NC(C)=O)[C@H]1COC(C)(C)C` (some centres undefined), the EC50 is above 661 µM and the IC50 was above 661 µM. Turning to `O=C(O)CN1C(=O)C(=O)c2cc([N+](=O)[O-])ccc21`, the EC50 was above 200 µM and the IC50 was above 200 µM. For the compound `CC(C)(C)c1ccc(OCCOc2ccc(C(C)(C)C)cc2N)c(N)c1`, the EC50 is above 200 µM and the IC50 was above 200 µM. As for `O=C(O)CC1CC=CCC1CC(=O)O` (centres undefined), the EC50 was above 200 µM and the half-inhibitory concentration (IC50) was above 200 µM.

Regarding `COC=C=CC(C)(C)OC`, the EC50 was above 550 µM and the IC50 is above 550 µM.

`O=C1Nc2cnc(Cl)nc2Nc2cc(Cl)ccc21`: the EC50 was above 200 µM and the IC50 is above 200 µM. On to `COc1ccc(Oc2c(OC)cc(NCc3ccc(CN)cc3)c3ncccc23)cc1`, for which the EC50 was above 200 µM and the half-inhibitory concentration (IC50) was determined as 27.5 µM. The like results for `CC1=C2C(c3ccccc3)(c3ccccc3)C3C=CC2(C=N3)N(C(=O)NC2CCCCC2)C1=O` (centres undefined) were, in that order, above 11.5 µM and above 11.5 µM. In the same order, the values of `CCOP(=O)(OCC)C(=C1C=C(C(C)(C)C)C(=O)C(C(C)(C)C)=C1)P(=O)(OCC)OCC` are above 200 µM and 0.933 µM. In the same order, the values of `COc1ccc(-c2cc(C3CC3)nc(SCC(=O)O)c2C#N)cc1` are above 200 µM and 39.8 µM. Take `COCn1c2ccc(OC(C)=O)cc2c2c(=O)oc(N(C)C)nc21`: the EC50 is above 200 µM and the IC50 was above 200 µM. With `COC1=CC(=O)c2ccc(C(C)C)cc2C1(C)C1=NC(C)(C)CO1` (centres undefined), the EC50 was above 151 µM and the half-maximal inhibitory concentration (IC50) is above 151 µM. With `CCOC(=O)CC(N1CC1)N1CC1`, the EC50 is above 200 µM and the IC50 is above 200 µM.

In the case of `Cc1cc(Cl)ccc1NC(=O)CC/C(CC(=O)C(C)C)=N\NC(=O)C[n+]1ccccc1`, the EC50 was above 16.2 µM and the IC50 is above 16.2 µM. As for `CCOC(=O)/C(=C/c1ccc(C)cc1)P(=O)(OCC)OCC`, the EC50 is 562 µM and the IC50 is 631 µM.

Regarding `COC(=O)c1cc(C(=CCCCC(=O)O)c2cc(Cl)c(OC)c(C(=O)OC)c2)cc(Cl)c1OC`, the EC50 was above 200 µM and the IC50 is above 200 µM. As to `CCCN1CN(C(C(=O)N[C@@H]2C(=O)N3C(C(=O)O)=C(C)CSC23)c2ccc(O)cc2)CSC1=S` (some centres undefined), the EC50 is above 347 µM and the IC50 came out at 195 µM. In the same order, the values of `CCOC(=O)/C=C/c1cccc(Cl)c1` are above 24.5 µM and above 24.5 µM. For `Cc1cc(NS(=O)(=O)c2ccc(NC(=O)c3ccc(Cl)c4c(Nc5ccc(S(=O)(=O)N=C(N)N)cc5)c5ccccc5nc34)cc2)no1`, the EC50 was above 51.3 µM and the IC50 is above 51.3 µM. With `COc1nc2c(c(O)c(C)c(=O)n2OC2OC(COC(C)=O)C(OC(C)=O)C(OC(C)=O)C2OC(C)=O)c(=O)n1C` (centres undefined), the EC50 is above 61.7 µM and the IC50 is above 61.7 µM. `COc1cccc(/C=C2\N=C(c3ccccc3)OC2=O)c1OC`: the EC50 is above 200 µM and the IC50 was 91.2 µM. The like results for `C=C(C)[C@@H]1CC[C@@H](C)[C@](O)([C@@H]2C[C@@H]([C@H](COC(=O)c3ccccc3)OC(=O)c3ccccc3)OC2=O)C1` were, in that order, above 100 µM and above 100 µM. For the compound `Cc1cc(NS(=O)(=O)c2ccc(Nc3c4ccccc4nc4ccc(C(=O)Nc5ccc(S(=O)(=O)N=C(N)N)cc5)cc34)cc2)no1`, the EC50 was above 200 µM and the IC50 came to 110 µM. Consider `Nc1cc(S(N)(=O)=O)ccc1SSc1ccc(S(N)(=O)=O)cc1N`, for which the EC50 is 21.4 µM and the half-maximal inhibitory concentration (IC50) amounted to 63.1 µM. In the same order, the values of `CC(C)OC(=O)OCSc1ccccc1N=Cc1cccc([N+](=O)[O-])c1` are above 200 µM and 38 µM.

In the case of `COc1ccc2c(ccc3nc(CCC(=O)O)n(C)c(=O)c32)c1`, the EC50 was above 794 µM and the IC50 came to 229 µM.

With `O=C1C(c2ccc([N+](=O)[O-])cc2)=C(Cl)C(=O)c2c(O)cccc21`, the EC50 is above 398 µM and the IC50 came out at 8.71 µM.

Turning to `CC1/C=C/C=C/CC/C=C/C=C/C=C/C=C/C(OC2OC(C)C(O)C(N)C2O)CC2OC(CC(O)C(O)CCC(O)CC(O)CC(O)CC(=O)OC(C)C(C)C1O)CC(O)C2C(=O)O` (centres undefined), the EC50 is above 50.1 µM and the IC50 was 3.31 µM.
